The values that follow come from US9822105B2, “Diaminotriazine compounds as herbicides” (BASF SE, priority 2014, dated 2017).

Some results are limits rather than exact numbers.

What all share (assay): Greenhouse test, pre-emergence treatment
In experiment [1] the test system is AMARE. The class given is in vivo, Amaranthus retroflexus. The following applies: for pest or weed control at 125 g/ha / pest or weed control at 500 g/ha / pest or weed control at 250 g/ha: Amaranthus retroflexus; for pest or weed control at 125 g/ha: read-out: herbicidal activity, 125 g/ha; for pest or weed control at 500 g/ha: read-out: herbicidal activity, 500 g/ha; for pest or weed control at 250 g/ha: read-out: herbicidal activity, 250 g/ha. An excerpt: (§1) The seeds of the test plants were sown separately for each species. For the pre-emergence treatment, the active ingredients, which had been suspended or emulsified in water, were applied directly after sowing by means of finely distributing nozzles. The containers were irrigated gently to promote germination and growth and subsequently covered with transparent plastic hoods until the plants had rooted. This cover caused uniform germination of the test plants, unless this had been impaired by the active ingredients. Depending on the species, the plants were kept at 10-25° C. or 20-35° C., respectively. The test period extended over 2 to 4 weeks. During this time, the plants were tended, and their response to the individual treatments was evaluated. Evaluation was carried out using a scale from 0 to 100. 100 means no emergence of the plants, or complete destruction of at least the aerial moieties, and 0 means no damage, or normal course of growth. […] The plants used in the greenhouse experiments were of the following species: [table]

Experiment [2] deals with SETFA. The class given is in vivo, Setaria faberi.
From the text: as §1

Experiment [3] deals with ECHCG. The experiment is classed as in vivo, Echinocloa crus-galli.
From the text: as §1

The test system of experiment [4] is ABUTH. The experiment is classed as in vivo, Abutilon theophrasti.
From the text: as §1

In the case of `CCC(F)c1nc(N)nc(Nc2c(F)ccc3c2OCO3)n1` (racemic) [Example 33], the herbicidal activity result in experiment [1] (125 g/ha) is recorded as “very good (a very good herbicidal activity is given at values of at least 85)”.
In the case of `CC(C)Cc1nc(N)nc(Nc2c(F)ccc3c2OCO3)n1` [Example 26], the herbicidal activity result is listed as “good (a good herbicidal activity is given at values of at least 70)” in experiment [2] (125 g/ha, SETFA); “very good (a very good herbicidal activity is given at values of at least 85)” in experiment [1] (125 g/ha); “good (a good herbicidal activity is given at values of at least 70)” in experiment [3] (125 g/ha).
On to `CC1Oc2ccc(F)c(Nc3nc(N)nc(C(C)(C)F)n3)c2O1` (single isomer, unassigned) [Example 8], for which the herbicidal activity result is on record as “very good (a very good herbicidal activity is given at values of at least 85)” in experiment [4] (250 g/ha); “very good (a very good herbicidal activity is given at values of at least 85)” in experiment [2] (250 g/ha, SETFA); “very good (a very good herbicidal activity is given at values of at least 85)” in experiment [1] (250 g/ha).
For `CC(C)(F)c1nc(N)nc(Nc2c(Cl)ccc3c2OCCO3)n1` [Example 42], in experiment [1], the pest or weed control at 125 g/ha is at least 85%.
`CC1Oc2ccc(Cl)c(Nc3nc(N)nc(C(C)(C)F)n3)c2O1` (racemic) [Example 12]: the herbicidal activity entry in experiment [4] (250 g/ha), in experiment [1] (250 g/ha) and in experiment [3] (250 g/ha) was “very good (a very good herbicidal activity is given at values of at least 85)” throughout.
Take `Nc1nc(Nc2c(F)ccc3c2OCO3)nc(N2CCCC2)n1` [Example 20]: the pest or weed control at 500 g/ha in experiment [1] was at least 85%.
Turning to `CC(C)(F)c1nc(N)nc(Nc2c(Br)c(Br)cc3c2OCO3)n1` [Example 4], the herbicidal activity result in experiment [4] (125 g/ha) was “good (a good herbicidal activity is given at values of at least 70)”.
With `CC1(C)Oc2ccc(Cl)c(Nc3nc(N)nc(C(C)(C)F)n3)c2O1` [Example 11], the herbicidal activity result in experiment [4] (250 g/ha), in experiment [1] (250 g/ha) and in experiment [3] (250 g/ha) was “very good (a very good herbicidal activity is given at values of at least 85)” throughout.
In the case of `CC(C)(F)c1nc(N)nc(Nc2c(Cl)c(Cl)cc3c2OCO3)n1` [Example 31], the herbicidal activity entry in experiment [2] (125 g/ha, STEFTA) is listed as “very good (a very good herbicidal activity is given at values of at least 85)”; in experiment [1] (125 g/ha), “very good (a very good herbicidal activity is given at values of at least 85)”; in experiment [3] (125 g/ha), “good (a good herbicidal activity is given at values of at least 70)”.
Regarding `CC1CCCN1c1nc(N)nc(Nc2c(F)ccc3c2OCO3)n1` (racemic) [Example 19], the herbicidal activity entry in experiment [1] (500 g/ha) is “very good (a very good herbicidal activity is given at values of at least 85)”.
For the compound `CC(C)c1nc(N)nc(Nc2c(F)ccc3c2OCO3)n1` [Example 17], the herbicidal activity result in experiment [4] (125 g/ha) was “good (a good herbicidal activity is given at values of at least 70)”. The pest or weed control at 125 g/ha in experiment [1] was at least 85%.
On to `Nc1nc(Nc2c(F)ccc3c2OCO3)nc(C2CCCCC2)n1` [Example 27], for which the herbicidal activity result in experiment [2] (125 g/ha, SETFA) is recorded as “good (a good herbicidal activity is given at values of at least 70)”. Also, the pest or weed control at 125 g/ha in experiment [1] was at least 85%.
With `CC(C)(F)c1nc(N)nc(Nc2c(F)ccc3c2CCC3)n1` [Example 41], the pest or weed control at 500 g/ha in experiment [1] is at least 85%.
As for `CC1(C)Oc2ccc(F)c(Nc3nc(N)nc(C(C)(C)F)n3)c2O1` [Example 14], the herbicidal activity entry in experiment [4] (250 g/ha), in experiment [1] (250 g/ha) and in experiment [3] (250 g/ha) was “very good (a very good herbicidal activity is given at values of at least 85)” in each case.
Take `Nc1nc(Nc2c(F)ccc3c2OCO3)nc(C2(Cl)CCC2)n1` [Example 5]: the herbicidal activity result is reported as “very good (a very good herbicidal activity is given at values of at least 85)” in experiment [2] (250 g/ha, SETFA) and “very good (a very good herbicidal activity is given at values of at least 85)” in experiment [3] (250 g/ha). Also, the pest or weed control at 250 g/ha in experiment [1] was at least 85%.
On to `Nc1nc(Nc2c(F)ccc3c2OCO3)nc(C2(F)CCCC2)n1` [Example 15], for which the herbicidal activity result is reported as “very good (a very good herbicidal activity is given at values of at least 85)” in experiment [4] (250 g/ha); “very good (a very good herbicidal activity is given at values of at least 85)” in experiment [2] (250 g/ha, SETFA); “very good (a very good herbicidal activity is given at values of at least 85)” in experiment [1] (250 g/ha).
As for `CC(C)(F)c1nc(N)nc(Nc2c(Cl)ccc3c2CCC3)n1` [Example 47], the herbicidal activity result in experiment [4] (250 g/ha) and in experiment [3] (250 g/ha) was “good (a good herbicidal activity is given at values of at least 70)” in each case.
As for `Cn1c(=O)oc2c(Nc3nc(N)nc(C(C)(C)F)n3)c(F)ccc21` [Example 38], the herbicidal activity result in experiment [1] (500 g/ha) is “very good (a very good herbicidal activity is given at values of at least 85)”.
For the compound `COC1(c2nc(N)nc(Nc3c(F)ccc4c3OCO4)n2)CCCCC1` [Example 23], the herbicidal activity result in experiment [2] (125 g/ha, SETFA) is listed as “good (a good herbicidal activity is given at values of at least 70)”; in experiment [3] (125 g/ha), “good (a good herbicidal activity is given at values of at least 70)”. In experiment [1], the pest or weed control at 125 g/ha is at least 85%.
Regarding `Nc1nc(Nc2c(F)ccc3c2OCO3)nc(C2CCCC2)n1` [Example 28], the pest or weed control at 125 g/ha in experiment [1] was at least 85%. For the same compound, the herbicidal activity entry in experiment [3] (125 g/ha) is “good (a good herbicidal activity is given at values of at least 70)”.
As to `CC(C)(F)c1nc(N)nc(Nc2c(F)ccc3ncoc23)n1` [Example 39], the herbicidal activity entry in experiment [4] (250 g/ha) is given as “very good (a very good herbicidal activity is given at values of at least 85)”. Moreover, the pest or weed control at 250 g/ha in experiment [1] was at least 85%.
As to `CC(C)(F)c1nc(N)nc(Nc2c(Cl)ccc3c2OC=CO3)n1` [Example 44], in experiment [1], the pest or weed control at 500 g/ha is at least 85%. In addition, in experiment [3] (500 g/ha), the herbicidal activity result is on record as “very good (a very good herbicidal activity is given at values of at least 85)”.
On to `CC(C)(C)c1nc(N)nc(Nc2c(F)ccc3c2OCO3)n1` [Example 29], for which the herbicidal activity entry in experiment [4] (125 g/ha) and in experiment [3] (125 g/ha) was “very good (a very good herbicidal activity is given at values of at least 85)” in each case. In experiment [1], the pest or weed control at 125 g/ha was at least 85%.
`CCC(C)c1nc(N)nc(Nc2c(F)ccc3c2OCO3)n1` (racemic) [Example 16]: the herbicidal activity entry in experiment [4] (125 g/ha) is recorded as “good (a good herbicidal activity is given at values of at least 70)”; in experiment [1] (125 g/ha), “very good (a very good herbicidal activity is given at values of at least 85)”.
Take `CON(C)c1nc(N)nc(Nc2c(F)ccc3c2OCO3)n1` [Example 25]: the herbicidal activity entry in experiment [1] (500 g/ha) was “very good (a very good herbicidal activity is given at values of at least 85)”.
On to `COC(C)c1nc(N)nc(Nc2c(F)ccc3c2OCO3)n1` (racemic) [Example 32], for which the herbicidal activity entry in experiment [4] (125 g/ha) and in experiment [1] (125 g/ha) was “good (a good herbicidal activity is given at values of at least 70)” in each case.
`CC(C)(C)Cc1nc(N)nc(Nc2c(F)ccc3c2OCO3)n1` [Example 24]: the herbicidal activity result in experiment [4] (125 g/ha), in experiment [1] (125 g/ha) and in experiment [3] (125 g/ha) was “very good (a very good herbicidal activity is given at values of at least 85)” each time.
Take `CC1Oc2ccc(F)c(Nc3nc(N)nc(C(C)(C)F)n3)c2O1` (single isomer, unassigned) [Example 7]: the herbicidal activity result in experiment [4] (250 g/ha) is on record as “very good (a very good herbicidal activity is given at values of at least 85)”; in experiment [2] (250 g/ha, SETFA) it was “very good (a very good herbicidal activity is given at values of at least 85)”; in experiment [1] (250 g/ha) it was “very good (a very good herbicidal activity is given at values of at least 85)”.
Turning to `CC(C)(F)c1nc(N)nc(Nc2c(F)ccc3c2OCCO3)n1` [Example 43], the pest or weed control at 500 g/ha in experiment [1] was at least 85%.
For `CC1Oc2ccc(F)c(Nc3nc(N)nc(C(C)(C)F)n3)c2O1` (single isomer, unassigned) [Example 35], the herbicidal activity entry in experiment [3] (250 g/ha) is reported as “very good (a very good herbicidal activity is given at values of at least 85)”.
As for `CC(C)(F)c1nc(N)nc(Nc2c(F)ccc3c2OC=CO3)n1` [Example 45], the herbicidal activity result in experiment [4] (125 g/ha) was “very good (a very good herbicidal activity is given at values of at least 85)”. In addition, the pest or weed control at 125 g/ha in experiment [1] was at least 85%.
